Measurements reported in US20080009418A1, “Selective Inhibitors” (Alchemia LTD., priority 2004, published 2008).

Key:
[1] = target: T1, Human neuropeptide Y (NPY-Y1) (Homo sapiens, UniProt P25929); experiment: Radioligand binding, human neuropeptide Y NPY-Y1 membranes, FlashPlate, [125I]-PYY; details: compound at 10 μM, [125I]-PYY
T1 construct: purchased Perkin Elmer Biosignal
T1 sequence (P25929 1-384): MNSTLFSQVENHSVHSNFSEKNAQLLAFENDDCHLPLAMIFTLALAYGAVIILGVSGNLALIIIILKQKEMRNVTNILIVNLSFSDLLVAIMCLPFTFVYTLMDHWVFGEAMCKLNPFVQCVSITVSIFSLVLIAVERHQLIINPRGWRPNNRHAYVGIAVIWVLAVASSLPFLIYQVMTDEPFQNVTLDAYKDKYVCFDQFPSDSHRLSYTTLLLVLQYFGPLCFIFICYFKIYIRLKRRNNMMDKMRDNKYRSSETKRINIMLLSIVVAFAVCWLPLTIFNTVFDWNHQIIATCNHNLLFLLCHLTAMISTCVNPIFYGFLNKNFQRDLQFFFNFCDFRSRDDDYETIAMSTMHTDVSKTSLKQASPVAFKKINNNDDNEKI
Outline: (§1)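 Cloned human receptor membranes were coated onto FlashPlate wells and incubated with radioligand and compound (added from a 0.5 mM DMSO daughter plate) for 1 hour at room temperature in the dark. Scintillation counting gave percent inhibition, with DMSO defining total and reference ligand defining non-specific binding.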

Human neurokinin (NK1) = target: T2, Human neurokinin (NK1) (Homo sapiens, UniProt P25103); experiment: Radioligand binding, human neurokinin NK1 membranes, filtration, [125I]-Substance P; details: compound at 10 μM, [125I]-Substance P
T2 construct: purchased Perkin Elmer Biosignal
T2 sequence (P25103 whole entry): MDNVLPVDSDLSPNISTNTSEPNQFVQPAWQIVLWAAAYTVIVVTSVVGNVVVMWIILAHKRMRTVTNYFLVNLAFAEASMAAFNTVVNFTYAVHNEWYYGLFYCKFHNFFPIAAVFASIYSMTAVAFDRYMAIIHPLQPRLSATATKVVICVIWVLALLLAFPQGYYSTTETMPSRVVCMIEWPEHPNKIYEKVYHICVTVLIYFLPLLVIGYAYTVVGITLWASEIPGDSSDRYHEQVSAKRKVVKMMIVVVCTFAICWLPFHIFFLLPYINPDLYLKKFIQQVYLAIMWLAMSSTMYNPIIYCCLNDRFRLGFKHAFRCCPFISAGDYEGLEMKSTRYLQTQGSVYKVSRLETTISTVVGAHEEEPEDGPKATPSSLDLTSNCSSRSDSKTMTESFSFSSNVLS
Outline: (§2)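 Membranes from cloned human receptors were incubated with compound and radioligand for 1 hour at room temperature. Bound ligand was collected on 0.3% PEI-soaked filters, washed with cold 50 mM Tris-HCl pH 7.4, and counted by scintillation. Percent inhibition was computed against DMSO totals and reference-ligand nonspecific wells.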

Human Melanocortin (MC3) = target: T3, Human Melanocortin (MC3) (Homo sapiens, UniProt P41968); experiment: Radioligand binding, human melanocortin MC3 membranes, FlashPlate, [125I]-NDP-αMSH; details: compound at 10 μM, [125I]-NDP-αMSH
T3 construct: purchased Perkin Elmer Biosignal
T3 sequence (P41968 whole entry): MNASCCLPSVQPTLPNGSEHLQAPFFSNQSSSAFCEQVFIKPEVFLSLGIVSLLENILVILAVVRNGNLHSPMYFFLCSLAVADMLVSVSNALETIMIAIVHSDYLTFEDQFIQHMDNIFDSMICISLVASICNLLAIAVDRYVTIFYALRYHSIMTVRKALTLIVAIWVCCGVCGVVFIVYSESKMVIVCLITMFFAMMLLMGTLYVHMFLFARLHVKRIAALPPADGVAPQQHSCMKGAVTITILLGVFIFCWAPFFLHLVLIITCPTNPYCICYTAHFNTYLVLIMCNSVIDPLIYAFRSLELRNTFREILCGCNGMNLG
Outline: as §1

[2] = target: T4, Human melanin-concentrating hormone (MCH1) (Homo sapiens, UniProt Q99705); experiment: Radioligand binding, human melanin-concentrating hormone MCH1 membranes, FlashPlate, [125I]-S36057; details: compound at 10 μM; for A6: inhibition of radioligand binding, human melanin-concentrating hormone (MCH1): [125I]-S36057
T4 construct: purchased Perkin Elmer Biosignal
T4 sequence (Q99705 whole entry): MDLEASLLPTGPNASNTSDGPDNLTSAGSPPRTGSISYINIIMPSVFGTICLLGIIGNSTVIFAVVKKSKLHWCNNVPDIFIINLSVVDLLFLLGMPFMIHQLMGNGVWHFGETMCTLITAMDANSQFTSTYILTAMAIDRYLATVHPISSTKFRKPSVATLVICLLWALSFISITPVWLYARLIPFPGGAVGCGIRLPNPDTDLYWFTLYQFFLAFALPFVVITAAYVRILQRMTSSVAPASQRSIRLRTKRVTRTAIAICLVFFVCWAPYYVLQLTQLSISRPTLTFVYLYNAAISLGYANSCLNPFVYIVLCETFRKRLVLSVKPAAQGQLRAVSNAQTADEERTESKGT
Outline: as §1

Human κ-Opioid (KOP) = target: T5, Human κ-Opioid (KOP) (Homo sapiens, UniProt P41145); experiment: Radioligand binding, human κ-opioid (KOP) membranes, filtration, [3H]-Diprenorphine; details: compound at 10 μM, [3H]-Diprenorphine
T5 construct: purchased Perkin Elmer Biosignal
T5 sequence (P41145 whole entry): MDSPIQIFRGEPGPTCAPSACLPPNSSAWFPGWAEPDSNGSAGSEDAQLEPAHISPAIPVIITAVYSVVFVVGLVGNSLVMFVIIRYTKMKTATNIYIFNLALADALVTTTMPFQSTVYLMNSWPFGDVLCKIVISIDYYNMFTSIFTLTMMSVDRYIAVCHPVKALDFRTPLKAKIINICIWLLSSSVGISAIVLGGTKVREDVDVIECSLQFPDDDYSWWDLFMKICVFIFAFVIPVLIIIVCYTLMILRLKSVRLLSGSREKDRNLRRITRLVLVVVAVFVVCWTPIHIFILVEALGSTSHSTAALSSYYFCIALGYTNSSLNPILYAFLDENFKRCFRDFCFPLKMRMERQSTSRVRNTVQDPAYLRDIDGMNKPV
Outline: as §2

Human opioid (ORL1) = target: T6, Human opioid (ORL1) (Homo sapiens, UniProt P41146); experiment: Radioligand binding, human opioid ORL1 membranes, FlashPlate, [125I]-Nociceptin; details: compound at 10 μM, [125I]-Nociceptin
T6 construct: purchased Perkin Elmer Biosignal
T6 sequence (P41146 whole entry): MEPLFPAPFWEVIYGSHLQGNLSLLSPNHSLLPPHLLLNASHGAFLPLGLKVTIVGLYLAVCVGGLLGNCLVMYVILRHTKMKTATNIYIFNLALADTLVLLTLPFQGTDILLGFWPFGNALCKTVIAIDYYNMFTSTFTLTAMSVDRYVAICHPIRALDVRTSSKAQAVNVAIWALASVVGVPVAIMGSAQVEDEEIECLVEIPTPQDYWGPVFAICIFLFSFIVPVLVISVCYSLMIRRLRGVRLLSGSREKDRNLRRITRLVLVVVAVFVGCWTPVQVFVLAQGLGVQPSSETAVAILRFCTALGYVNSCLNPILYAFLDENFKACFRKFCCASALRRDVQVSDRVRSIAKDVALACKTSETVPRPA
Outline: as §1

Human Melanocortin (MC4) = target: T7, Human Melanocortin (MC4) (Homo sapiens, UniProt P32245); experiment: Radioligand binding, human melanocortin MC4 membranes, FlashPlate, [125I]-NDP-αMSH; details: compound at 10 μM, [125I]-NDP-αMSH
T7 construct: purchased Perkin Elmer Biosignal
T7 sequence (P32245 whole entry): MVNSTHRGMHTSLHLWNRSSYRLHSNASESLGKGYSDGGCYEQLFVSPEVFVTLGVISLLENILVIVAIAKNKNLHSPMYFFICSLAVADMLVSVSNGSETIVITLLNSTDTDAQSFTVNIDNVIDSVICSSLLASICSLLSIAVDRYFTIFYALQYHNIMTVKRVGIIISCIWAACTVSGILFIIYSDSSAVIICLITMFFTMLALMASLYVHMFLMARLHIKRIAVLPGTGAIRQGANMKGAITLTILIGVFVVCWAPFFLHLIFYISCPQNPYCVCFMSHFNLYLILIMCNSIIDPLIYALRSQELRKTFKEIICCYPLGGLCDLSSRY
Outline: as §1

Mouse urotensin (mUR2) = target: T8, Mouse urotensin (mUR2) (Mus musculus, UniProt Q8VIH9); experiment: Radioligand binding, mouse urotensin mUR2 membranes, FlashPlate, [125I]-Urotensin II; details: compound at 10 μM, [125I]-Urotensin II
T8 construct: purchased Perkin Elmer Biosignal
T8 sequence (Q8VIH9 1-385): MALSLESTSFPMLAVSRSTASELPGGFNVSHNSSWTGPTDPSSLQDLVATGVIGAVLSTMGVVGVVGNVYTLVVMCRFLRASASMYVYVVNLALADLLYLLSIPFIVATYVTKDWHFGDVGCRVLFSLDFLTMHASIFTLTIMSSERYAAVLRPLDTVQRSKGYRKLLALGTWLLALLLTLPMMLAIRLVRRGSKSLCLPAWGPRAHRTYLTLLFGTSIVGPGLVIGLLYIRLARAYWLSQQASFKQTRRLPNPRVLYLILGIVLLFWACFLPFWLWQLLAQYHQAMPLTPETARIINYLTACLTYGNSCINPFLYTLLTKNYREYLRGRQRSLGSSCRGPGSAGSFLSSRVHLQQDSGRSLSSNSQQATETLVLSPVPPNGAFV
Outline: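 Cloned mouse urotensin (mUR2) receptor membranes from Perkin Elmer Biosignal were immobilized in FlashPlate microplates using a proprietary coating. Each well got 19.5 μl buffer, then 0.5 μl of DMSO, reference ligand, or compound. Adding 5 μl of [125I]-Urotensin II, diluted to 5× final concentration in binding buffer, started binding. Plates were sealed with TopSeal-A and incubated 1 hour at room temperature in the dark. Wells were counted for 30 seconds each on a TopCount after a 60-second delay, and percentage inhibition was calculated.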

Human μ-opioid (MOP) = target: T9, Human μ-opioid (MOP) (Homo sapiens, UniProt P35372); experiment: Radioligand binding, human μ-opioid (MOP) membranes, FlashPlate, [3H]-Naloxone; details: compound at 10 μM, [3H]-Naloxone
T9 construct: purchased Perkin Elmer Biosignal
T9 sequence (P35372 whole entry): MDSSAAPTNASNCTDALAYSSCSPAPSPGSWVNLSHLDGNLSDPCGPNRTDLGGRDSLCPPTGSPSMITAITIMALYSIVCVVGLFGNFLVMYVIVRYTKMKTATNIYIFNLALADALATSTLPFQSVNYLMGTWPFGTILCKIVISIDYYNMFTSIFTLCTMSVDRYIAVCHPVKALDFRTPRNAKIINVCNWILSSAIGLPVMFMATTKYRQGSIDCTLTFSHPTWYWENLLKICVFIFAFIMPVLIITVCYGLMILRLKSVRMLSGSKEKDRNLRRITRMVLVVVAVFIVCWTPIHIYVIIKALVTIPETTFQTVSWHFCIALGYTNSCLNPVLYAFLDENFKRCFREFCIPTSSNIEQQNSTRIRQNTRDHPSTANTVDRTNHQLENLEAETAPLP
Outline: as §1

Human δ-opioid (DOP) = target: T10, Human δ-opioid (DOP) (Homo sapiens, UniProt P41143); experiment: Radioligand binding, human δ-opioid (DOP) membranes, FlashPlate, [3H]-Bremazocine; details: compound at 10 μM, [3H]-Bremazocine
T10 construct: purchased Perkin Elmer Biosignal
T10 sequence (P41143 whole entry): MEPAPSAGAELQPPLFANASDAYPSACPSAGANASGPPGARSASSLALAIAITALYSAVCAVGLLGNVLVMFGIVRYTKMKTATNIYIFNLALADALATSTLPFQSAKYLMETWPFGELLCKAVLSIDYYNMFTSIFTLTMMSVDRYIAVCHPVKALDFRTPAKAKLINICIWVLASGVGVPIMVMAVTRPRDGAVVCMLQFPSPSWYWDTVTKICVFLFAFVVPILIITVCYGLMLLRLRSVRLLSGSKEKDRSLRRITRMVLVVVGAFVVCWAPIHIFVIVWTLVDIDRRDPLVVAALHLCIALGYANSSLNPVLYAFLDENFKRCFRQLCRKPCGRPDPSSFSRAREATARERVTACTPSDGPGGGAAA
Outline: as §1

Human melanocortin (MC5) = target: T11, Human melanocortin (MC5) (Homo sapiens, UniProt P33032); experiment: Radioligand binding, human melanocortin MC5 membranes, FlashPlate, [125I]-NDP-αMSH; details: compound at 10 μM, [125I]-NDP-αMSH
T11 construct: purchased Perkin Elmer Biosignal
T11 sequence (P33032 whole entry): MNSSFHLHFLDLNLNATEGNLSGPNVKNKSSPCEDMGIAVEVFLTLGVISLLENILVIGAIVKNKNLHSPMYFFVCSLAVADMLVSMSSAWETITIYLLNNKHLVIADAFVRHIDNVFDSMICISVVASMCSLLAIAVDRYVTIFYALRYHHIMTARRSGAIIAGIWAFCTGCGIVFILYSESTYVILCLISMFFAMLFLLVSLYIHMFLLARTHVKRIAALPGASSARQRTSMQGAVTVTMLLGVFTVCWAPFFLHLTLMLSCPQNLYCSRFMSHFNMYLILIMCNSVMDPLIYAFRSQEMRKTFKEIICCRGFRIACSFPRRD
Outline: as §1

## N=C(N)NCC(=O)NC1C(OCc2ccc(-c3ccccc3)cc2)OC(COCc2ccc(Cl)cc2)C(O)C1OCc1ccc(Cl)cc1 (stereo not shown) [compound 401]
[1]; human NPY-Y1 membranes
  A9: inhibition of radioligand binding: − (“−” indicates less than 50% inhibition at 10 μM)
Human neurokinin (NK1); human NK1 membranes
  A8: inhibition of radioligand binding: + (“+” indicates greater than 50% inhibition at 10 μM)
Human Melanocortin (MC3); human MC3 membranes
  A3: inhibition of radioligand binding: + (“+” indicates greater than 50% inhibition at 10 μM)
[2]; [125I]-S36057, human MCH1 membranes
  A6: inhibition of radioligand binding: + (“+” indicates greater than 50% inhibition at 10 μM)
Human κ-Opioid (KOP); human KOP membranes
  A2: inhibition of radioligand binding: − (“−” indicates less than 50% inhibition at 10 μM)
Human opioid (ORL1); human ORL1 membranes
  A10: inhibition of radioligand binding: + (“+” indicates greater than 50% inhibition at 10 μM)
Human Melanocortin (MC4); human MC4 membranes
  A4: inhibition of radioligand binding: + (“+” indicates greater than 50% inhibition at 10 μM)
Mouse urotensin (mUR2); mouse mUR2 membranes
  A11: inhibition of radioligand binding: − (“−” indicates less than 50% inhibition at 10 μM)
Human μ-opioid (MOP); human MOP membranes
  A7: inhibition of radioligand binding: − (“−” indicates less than 50% inhibition at 10 μM)
Human δ-opioid (DOP); human DOP membranes
  A1: inhibition of radioligand binding: − (“−” indicates less than 50% inhibition at 10 μM)
Human melanocortin (MC5); human MC5 membranes
  A5: inhibition of radioligand binding: + (“+” indicates greater than 50% inhibition at 10 μM)

## NCCCC(=O)NC1C(OCc2ccc(Cl)cc2)OC(COCc2ccccc2)C(O)C1OCc1ccc2ccccc2c1 (single isomer, unassigned) [compound 498]
[1]
  A9: inhibition of radioligand binding, human neuropeptide Y (NPY-Y1): − (“−” indicates less than 50% inhibition at 10 μM)
Human neurokinin (NK1)
  A8: inhibition of radioligand binding, human neurokinin (NK1): + (“+” indicates greater than 50% inhibition at 10 μM)
Human Melanocortin (MC3)
  A3: inhibition of radioligand binding, human melanocortin (MC3): − (“−” indicates less than 50% inhibition at 10 μM)
[2]
  A6: inhibition of radioligand binding, human melanin-concentrating hormone (MCH1): − (“−” indicates less than 50% inhibition at 10 μM)
Human κ-Opioid (KOP)
  A2: inhibition of radioligand binding, human κ-opioid (KOP): − (“−” indicates less than 50% inhibition at 10 μM)
Human opioid (ORL1); 10 µM
  A10: inhibition of radioligand binding, human opioid (ORL1): + (“+” indicates greater than 50% inhibition at 10 μM)
Human Melanocortin (MC4); 10 µM
  A4: inhibition of radioligand binding, human melanocortin (MC4): + (“+” indicates greater than 50% inhibition at 10 μM)
Mouse urotensin (mUR2)
  A11: inhibition of radioligand binding, mouse urotensin (mUR2): − (“−” indicates less than 50% inhibition at 10 μM)
Human μ-opioid (MOP)
  A7: inhibition of radioligand binding, human μ-opioid (MOP): − (“−” indicates less than 50% inhibition at 10 μM)
Human δ-opioid (DOP)
  A1: inhibition of radioligand binding, human δ-opioid (DOP): − (“−” indicates less than 50% inhibition at 10 μM)
Human melanocortin (MC5)
  A5: inhibition of radioligand binding, human melanocortin (MC5): + (“+” indicates greater than 50% inhibition at 10 μM)

## COCC1OC(OCc2ccc(Cl)cc2)C(NC(=O)CCCN)C(OCc2ccc3ccccc3c2)C1O (stereo not shown) [compound 212]
[1]; FlashPlate
  A9: inhibition of radioligand binding: − (“−” indicates less than 50% inhibition at 10 μM)
Human neurokinin (NK1); filtration
  A8: inhibition of radioligand binding: + (“+” indicates greater than 50% inhibition at 10 μM)
Human Melanocortin (MC3); FlashPlate
  A3: inhibition of radioligand binding: − (“−” indicates less than 50% inhibition at 10 μM)
[2]; [125I]-S36057, FlashPlate
  A6: inhibition of radioligand binding: − (“−” indicates less than 50% inhibition at 10 μM)
Human κ-Opioid (KOP); filtration
  A2: inhibition of radioligand binding: − (“−” indicates less than 50% inhibition at 10 μM)
Human opioid (ORL1); FlashPlate
  A10: inhibition of radioligand binding: − (“−” indicates less than 50% inhibition at 10 μM)
Human Melanocortin (MC4); FlashPlate
  A4: inhibition of radioligand binding: − (“−” indicates less than 50% inhibition at 10 μM)
Mouse urotensin (mUR2); FlashPlate
  A11: inhibition of radioligand binding: − (“−” indicates less than 50% inhibition at 10 μM)
Human μ-opioid (MOP); FlashPlate
  A7: inhibition of radioligand binding: − (“−” indicates less than 50% inhibition at 10 μM)
Human δ-opioid (DOP); FlashPlate
  A1: inhibition of radioligand binding: − (“−” indicates less than 50% inhibition at 10 μM)
Human melanocortin (MC5); FlashPlate
  A5: inhibition of radioligand binding: + (“+” indicates greater than 50% inhibition at 10 μM)

## NCCC(=O)NC1C(OCc2ccccc2)OC(COCc2ccccc2)C(O)C1OCc1ccc(Cl)cc1 (stereo not shown) [compound 365]
[1]
  A9: inhibition of radioligand binding, human neuropeptide Y (NPY-Y1): − (“−” indicates less than 50% inhibition at 10 μM)
Human neurokinin (NK1)
  A8: inhibition of radioligand binding, human neurokinin (NK1): + (“+” indicates greater than 50% inhibition at 10 μM)
Human Melanocortin (MC3)
  A3: inhibition of radioligand binding, human melanocortin (MC3): − (“−” indicates less than 50% inhibition at 10 μM)
[2]
  A6: inhibition of radioligand binding, human melanin-concentrating hormone (MCH1): − (“−” indicates less than 50% inhibition at 10 μM)
Human κ-Opioid (KOP)
  A2: inhibition of radioligand binding, human κ-opioid (KOP): − (“−” indicates less than 50% inhibition at 10 μM)
Human opioid (ORL1)
  A10: inhibition of radioligand binding, human opioid (ORL1): − (“−” indicates less than 50% inhibition at 10 μM)
Human Melanocortin (MC4)
  A4: inhibition of radioligand binding, human melanocortin (MC4): − (“−” indicates less than 50% inhibition at 10 μM)
Mouse urotensin (mUR2)
  A11: inhibition of radioligand binding, mouse urotensin (mUR2): − (“−” indicates less than 50% inhibition at 10 μM)
Human μ-opioid (MOP)
  A7: inhibition of radioligand binding, human μ-opioid (MOP): − (“−” indicates less than 50% inhibition at 10 μM)
Human δ-opioid (DOP)
  A1: inhibition of radioligand binding, human δ-opioid (DOP): − (“−” indicates less than 50% inhibition at 10 μM)
Human melanocortin (MC5)
  A5: inhibition of radioligand binding, human melanocortin (MC5): − (“−” indicates less than 50% inhibition at 10 μM)

## CSC1OC(COCc2cccc(N)c2)C(O)C(OCc2ccc(Cl)cc2)C1NC(=O)Cc1ccccc1 (stereo not shown) [compound 328]
[1]
  A9: inhibition of radioligand binding, human neuropeptide Y (NPY-Y1): − (“−” indicates less than 50% inhibition at 10 μM)
Human neurokinin (NK1)
  A8: inhibition of radioligand binding, human neurokinin (NK1): + (“+” indicates greater than 50% inhibition at 10 μM)
Human Melanocortin (MC3)
  A3: inhibition of radioligand binding, human melanocortin (MC3): − (“−” indicates less than 50% inhibition at 10 μM)
[2]
  A6: inhibition of radioligand binding, human melanin-concentrating hormone (MCH1): − (“−” indicates less than 50% inhibition at 10 μM)
Human κ-Opioid (KOP)
  A2: inhibition of radioligand binding, human κ-opioid (KOP): − (“−” indicates less than 50% inhibition at 10 μM)
Human opioid (ORL1)
  A10: inhibition of radioligand binding, human opioid (ORL1): − (“−” indicates less than 50% inhibition at 10 μM)
Human Melanocortin (MC4)
  A4: inhibition of radioligand binding, human melanocortin (MC4): − (“−” indicates less than 50% inhibition at 10 μM)
Mouse urotensin (mUR2)
  A11: inhibition of radioligand binding, mouse urotensin (mUR2): − (“−” indicates less than 50% inhibition at 10 μM)
Human μ-opioid (MOP)
  A7: inhibition of radioligand binding, human μ-opioid (MOP): − (“−” indicates less than 50% inhibition at 10 μM)
Human δ-opioid (DOP)
  A1: inhibition of radioligand binding, human δ-opioid (DOP): − (“−” indicates less than 50% inhibition at 10 μM)
Human melanocortin (MC5)
  A5: inhibition of radioligand binding, human melanocortin (MC5): − (“−” indicates less than 50% inhibition at 10 μM)
